What was measured:
Assay in all cases: Inhibitory Activity of the Compounds of the Invention Against ROS1, NTRK and ALK and their Drug-Resistant Kinases
[1] = target: NT-3 growth factor receptor (Homo sapiens, UniProt Q16288)
Method: (§1) Inhibition of protein kinase activity by compounds was carried out on the Radio-tagged HotSpot kinase experimental platform of Reaction Biology Corporation. Fresh reaction solution (20 mM HEPESpH 7.5, 10 mM MgCl2, 1 mM EGTA, 0.02% Brij35, 0.02 mg/ml BSA, 0.1 mM Na3VO4, 2 mM DTT, 1% DMSO) containing corresponding substrates was prepared, cofactor and kinase to be tested were added into the above solution and mixed gently. Echo550 pipetting system was used to add the test compound DMSO solution to each well (the blank control group was added with the corresponding volume of DMSO), then 33P-ATP (with a final specific activity of 0.01 μCi/μL) was added to start the reaction. The reaction solution was incubated at room temperature for 120 minutes.

[2] = target: Proto-oncogene tyrosine-protein kinase ROS (Homo sapiens, UniProt P08922)
Method: as §1

[3] = target: High affinity nerve growth factor receptor (Homo sapiens, UniProt P04629)
Sequence of High affinity nerve growth factor receptor (P04629 whole entry): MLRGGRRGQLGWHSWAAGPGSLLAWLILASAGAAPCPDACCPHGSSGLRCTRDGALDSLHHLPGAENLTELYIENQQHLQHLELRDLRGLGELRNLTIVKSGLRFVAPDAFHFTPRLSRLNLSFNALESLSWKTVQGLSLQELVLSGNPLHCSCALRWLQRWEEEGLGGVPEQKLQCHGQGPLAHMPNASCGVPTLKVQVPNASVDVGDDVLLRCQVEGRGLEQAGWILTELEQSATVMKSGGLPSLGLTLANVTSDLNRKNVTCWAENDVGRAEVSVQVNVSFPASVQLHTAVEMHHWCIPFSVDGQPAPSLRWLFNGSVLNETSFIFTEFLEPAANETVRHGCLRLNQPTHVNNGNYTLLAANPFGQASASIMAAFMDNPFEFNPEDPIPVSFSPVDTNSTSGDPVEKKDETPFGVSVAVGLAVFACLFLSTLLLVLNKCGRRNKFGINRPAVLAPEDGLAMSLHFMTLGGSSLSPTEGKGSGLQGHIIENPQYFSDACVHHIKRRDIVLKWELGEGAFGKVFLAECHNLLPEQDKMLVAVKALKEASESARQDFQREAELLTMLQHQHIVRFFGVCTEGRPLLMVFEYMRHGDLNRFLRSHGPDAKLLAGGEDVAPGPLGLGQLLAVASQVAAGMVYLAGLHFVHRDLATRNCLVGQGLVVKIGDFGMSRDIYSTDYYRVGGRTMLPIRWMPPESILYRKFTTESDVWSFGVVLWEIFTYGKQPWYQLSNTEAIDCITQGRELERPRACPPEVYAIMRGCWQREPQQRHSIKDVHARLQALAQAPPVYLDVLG
Method: as §1

Sequence of NT-3 growth factor receptor (Q16288 whole entry): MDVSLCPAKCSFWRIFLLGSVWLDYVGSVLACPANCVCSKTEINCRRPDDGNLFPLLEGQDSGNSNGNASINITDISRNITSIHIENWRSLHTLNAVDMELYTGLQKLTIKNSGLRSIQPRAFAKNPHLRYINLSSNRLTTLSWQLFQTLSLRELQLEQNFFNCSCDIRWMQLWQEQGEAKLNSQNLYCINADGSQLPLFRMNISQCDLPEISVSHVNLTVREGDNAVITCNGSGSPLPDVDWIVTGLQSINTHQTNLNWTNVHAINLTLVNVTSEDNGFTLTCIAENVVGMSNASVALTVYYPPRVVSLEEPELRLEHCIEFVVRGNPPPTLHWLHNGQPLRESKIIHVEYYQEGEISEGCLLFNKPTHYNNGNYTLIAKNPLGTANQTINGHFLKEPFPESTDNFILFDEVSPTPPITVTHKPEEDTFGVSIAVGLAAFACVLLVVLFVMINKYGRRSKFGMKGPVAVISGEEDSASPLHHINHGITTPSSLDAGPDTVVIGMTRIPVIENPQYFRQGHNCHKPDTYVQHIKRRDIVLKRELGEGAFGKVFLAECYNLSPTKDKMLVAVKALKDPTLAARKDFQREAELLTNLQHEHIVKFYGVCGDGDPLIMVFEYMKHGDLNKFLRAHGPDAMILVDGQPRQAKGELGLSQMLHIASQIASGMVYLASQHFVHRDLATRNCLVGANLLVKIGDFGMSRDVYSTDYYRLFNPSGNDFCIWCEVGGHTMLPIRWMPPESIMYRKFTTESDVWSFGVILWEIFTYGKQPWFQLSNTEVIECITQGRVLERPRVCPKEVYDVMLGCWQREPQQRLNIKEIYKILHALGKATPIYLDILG
Sequence of Proto-oncogene tyrosine-protein kinase ROS (P08922 whole entry): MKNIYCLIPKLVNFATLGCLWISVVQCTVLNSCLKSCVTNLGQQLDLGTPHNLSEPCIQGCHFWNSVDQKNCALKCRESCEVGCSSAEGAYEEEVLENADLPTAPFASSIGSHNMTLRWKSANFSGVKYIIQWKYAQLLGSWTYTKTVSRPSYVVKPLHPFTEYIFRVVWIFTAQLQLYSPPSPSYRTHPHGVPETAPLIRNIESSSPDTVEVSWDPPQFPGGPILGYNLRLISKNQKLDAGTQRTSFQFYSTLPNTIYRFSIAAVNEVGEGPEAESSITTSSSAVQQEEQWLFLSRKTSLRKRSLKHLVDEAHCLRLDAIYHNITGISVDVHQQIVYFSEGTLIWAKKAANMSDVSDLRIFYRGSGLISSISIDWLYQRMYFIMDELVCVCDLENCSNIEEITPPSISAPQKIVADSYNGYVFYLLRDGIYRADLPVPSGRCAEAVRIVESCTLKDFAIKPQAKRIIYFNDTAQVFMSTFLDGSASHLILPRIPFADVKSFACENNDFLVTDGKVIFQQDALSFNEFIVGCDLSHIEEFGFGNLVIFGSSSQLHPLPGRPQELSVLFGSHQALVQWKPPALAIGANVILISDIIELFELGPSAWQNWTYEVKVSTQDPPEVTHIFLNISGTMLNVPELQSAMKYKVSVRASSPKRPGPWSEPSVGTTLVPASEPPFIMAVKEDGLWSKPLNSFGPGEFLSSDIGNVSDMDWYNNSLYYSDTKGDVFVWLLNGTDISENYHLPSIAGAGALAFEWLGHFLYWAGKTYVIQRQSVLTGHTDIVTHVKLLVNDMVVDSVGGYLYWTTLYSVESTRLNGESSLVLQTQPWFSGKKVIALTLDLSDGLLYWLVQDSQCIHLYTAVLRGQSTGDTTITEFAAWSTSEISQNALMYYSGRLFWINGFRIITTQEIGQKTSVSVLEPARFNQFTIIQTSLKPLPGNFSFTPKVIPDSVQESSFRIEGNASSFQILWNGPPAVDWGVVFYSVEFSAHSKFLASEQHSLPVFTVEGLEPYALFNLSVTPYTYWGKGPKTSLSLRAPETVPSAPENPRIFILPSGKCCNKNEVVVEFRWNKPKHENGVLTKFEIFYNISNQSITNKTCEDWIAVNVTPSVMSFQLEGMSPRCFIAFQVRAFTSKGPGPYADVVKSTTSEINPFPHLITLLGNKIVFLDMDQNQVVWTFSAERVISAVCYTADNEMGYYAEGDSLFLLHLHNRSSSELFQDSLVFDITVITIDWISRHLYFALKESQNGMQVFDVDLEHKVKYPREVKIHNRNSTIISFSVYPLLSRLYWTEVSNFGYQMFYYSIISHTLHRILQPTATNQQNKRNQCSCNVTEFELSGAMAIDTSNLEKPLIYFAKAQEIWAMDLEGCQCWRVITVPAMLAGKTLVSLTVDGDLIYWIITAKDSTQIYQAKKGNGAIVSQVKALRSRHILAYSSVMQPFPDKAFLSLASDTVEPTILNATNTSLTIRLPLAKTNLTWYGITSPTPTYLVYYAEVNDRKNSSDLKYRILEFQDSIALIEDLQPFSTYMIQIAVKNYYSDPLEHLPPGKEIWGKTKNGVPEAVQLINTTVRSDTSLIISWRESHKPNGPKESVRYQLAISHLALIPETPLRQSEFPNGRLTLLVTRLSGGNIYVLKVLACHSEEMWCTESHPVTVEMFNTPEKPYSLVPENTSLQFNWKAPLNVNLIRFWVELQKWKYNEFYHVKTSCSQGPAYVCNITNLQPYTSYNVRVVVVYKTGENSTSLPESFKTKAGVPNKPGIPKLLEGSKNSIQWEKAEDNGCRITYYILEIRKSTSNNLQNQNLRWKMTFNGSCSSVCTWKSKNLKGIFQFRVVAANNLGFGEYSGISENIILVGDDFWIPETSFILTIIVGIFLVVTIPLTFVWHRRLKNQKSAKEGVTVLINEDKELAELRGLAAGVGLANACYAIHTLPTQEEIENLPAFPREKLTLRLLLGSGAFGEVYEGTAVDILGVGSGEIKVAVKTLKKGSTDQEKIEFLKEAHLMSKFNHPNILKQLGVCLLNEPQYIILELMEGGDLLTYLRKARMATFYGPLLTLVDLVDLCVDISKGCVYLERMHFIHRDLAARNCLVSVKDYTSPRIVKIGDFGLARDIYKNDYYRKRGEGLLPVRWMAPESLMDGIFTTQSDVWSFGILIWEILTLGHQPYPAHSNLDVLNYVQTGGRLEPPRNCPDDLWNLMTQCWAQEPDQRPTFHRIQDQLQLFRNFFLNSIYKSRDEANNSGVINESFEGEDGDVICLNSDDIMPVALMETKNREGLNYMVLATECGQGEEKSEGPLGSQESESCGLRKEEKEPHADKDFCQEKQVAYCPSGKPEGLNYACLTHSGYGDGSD

IC50 [1]: < 0.5 nM | IC50 [2]: < 0.5 nM | IC50 [3]: < 0.5 nM
SMILES: C[C@@H](Oc1ccn2ncc(C3=NOC(C)(C)N3)c2n1)c1c(Cl)ccc(F)c1Cl [US12435089, Example 9]
